Where two headings read alike, the source gives them in different places.
Legend:
[1] = molecular target: T1, Recombinant HCV polymerase (Hepatitis C virus genotype 1b, UniProt P26663); assay: HCV Polymerase Inhibition Assay; type: biochemical; conditions: primer/template-directed transcription, 30 minutes at 30° C.
T1 construct: 2.5 pmoles (0.15 μg) HCV polymerase protein
Outline: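 Recombinant genotype 1b polymerase (2.5 pmol) extended biotin-dG12 on poly(rC)300 with 1 μM GTP plus α-32P-GTP, pH 7.2, 30 min at 30 °C, 1% DMSO final; DE-filter-bound product counted. IC50 fitted from triplicate cpm, refitted with enzyme-concentration (30 nM) tight-binding equation when below 200 nM.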

T1 sequence (P26663 2420-3010): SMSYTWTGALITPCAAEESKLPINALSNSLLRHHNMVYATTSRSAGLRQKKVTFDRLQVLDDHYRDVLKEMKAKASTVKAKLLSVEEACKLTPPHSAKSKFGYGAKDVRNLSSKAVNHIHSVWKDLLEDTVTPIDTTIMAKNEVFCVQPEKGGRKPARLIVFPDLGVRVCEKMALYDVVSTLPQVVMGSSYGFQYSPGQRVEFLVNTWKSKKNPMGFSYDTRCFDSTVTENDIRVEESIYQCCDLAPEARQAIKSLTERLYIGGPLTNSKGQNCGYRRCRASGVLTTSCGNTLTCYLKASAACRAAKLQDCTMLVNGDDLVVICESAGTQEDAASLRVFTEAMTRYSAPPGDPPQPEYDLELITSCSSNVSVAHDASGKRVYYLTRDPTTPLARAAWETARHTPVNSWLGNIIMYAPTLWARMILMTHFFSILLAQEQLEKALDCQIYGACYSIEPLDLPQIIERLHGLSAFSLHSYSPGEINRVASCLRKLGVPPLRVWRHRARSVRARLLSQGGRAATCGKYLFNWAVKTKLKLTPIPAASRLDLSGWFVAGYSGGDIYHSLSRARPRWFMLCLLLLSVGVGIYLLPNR

Compound | melting point | IC50 ([1]; category symbol) | IC50 ([1]; read-out: IC50(μM) Category)
CCCN(C1=C(O)CC(C2CCCC2)(C2CCCC2)OC1=O)c1cccc(NS(=O)(=O)c2cccs2)c1 [Example 186, Thiophene-2-sulfonic acid {3-[(6,6-dicyclopentyl-4-hydroxy-2-oxo-5,6-dihydro-2H-pyran-3-yl)-propyl-amino]-phenyl}-amide] | 92 to 95 °C | 10 to 50 µM | 
CCN(C1=C(O)CC(CCc2ccc(O)cc2)(C2CCCC2)OC1=O)c1ccccc1 (stereo not shown) [Example 160, Cyclopentyl-(ethyl-phenyl-amino)-hydroxy-[2-(4-hydroxy-phenyl)-ethyl]-5,6-dihydro-pyran-2-one] | 83 to 85 °C | 1 to 10 µM | 
Cc1cc(SC2=C(O)CC(C3CCCC3)(C3CCCC3)OC2=O)c(C(C)(C)C)cc1N [Example 179, 3-(4-Amino-2-tert-butyl-5-methyl-phenylsulfanyl)-6,6-dicyclopentyl-4-hydroxy-5,6-dihydro-pyran-2-one] | 163 to 165 °C |  | 15.5 µM
Cc1cc(SC2=C(O)CC(CCc3ccc(O)cc3)(C3CCCC3)OC2=O)c(C(C)(C)C)cc1OCCO (stereo not shown) [Example 148, 3-[2-tert-butyl-4-(2-hydroxy-ethoxy)-5-methyl-phenylsulfanyl]-6-cyclopentyl-4-hydroxy-6-[2-(4-hydroxy-phenyl)-ethyl]-5,6-dihydro-pyran-2-one] | 113 to 115 °C | 1 to 10 µM | 
CC(=O)Nc1cc(C(C)(C)C)c(SC2=C(O)CC(CCc3ccc(O)cc3)(C3CCCCC3)OC2=O)cc1C (stereo not shown) [Example 142, N-(5-tert-butyl4-{6-cyclohexyl-4-hydroxy-6-[2-(4-hydroxy-phenyl)-ethyl]-2-oxo-5,6-dihydro-2H-pyran-3-ylsulfanyl)-2-methyl-phenyl)-acetamide] | > 154 °C | > 50 µM | 
Cc1cc(SC2=C(O)CC(C3CCCC3)(C3CCCC3)OC2=O)c(C(C)(C)C)cc1CO [Example 180, 3-(2-tert-butyl-4-hydroxymethyl-5-methyl-phenylsulfanyl)-6,6-dicyclopentyl-4-hydroxy-5,6-dihydro-pyran-2-one] | 158 to 160 °C |  | 15 µM
O=C1CC(=O)OC(CCc2ccccc2)(C2CCCC2)C1 (stereo not shown) [Example 35, 6-Cyclopentyl-6-phenethyl-dihydro-pyran-2,4-dione] | 96 to 99 °C | 10 to 50 µM | 
Cc1cc(SC2=C(O)CC(CCc3ccc(O)cc3)(C3CCCC3)OC2=O)c(C(C)(C)C)cc1NS(=O)(=O)c1ccccc1 (racemic) [Example 141, (+/−)N-(5-tert-butyl-{6-cyclopentyl-4-hydroxy-6-[2-(4-hydroxy-phenyl)-ethyl]-2-oxo-5,6-dihydro-2H-pyran-3-ylsulfanyl}-2-methyl-phenyl)-benzenesulfonamide] | 125 to 127 °C | 1 to 10 µM | 
CCN(C1=C(O)C[C@@](CCc2ccc(O)cc2)(C2CCCC2)OC1=O)c1ccccc1 [Example 158] | 90 to 92 °C |  | 
C=CCOCc1ccccc1CCC1(C2CCCC2)CC(=O)CC(=O)O1 (stereo not shown) [Example 5, 6-[2-(2-Allyloxymethylphenyl)ethyl]-6-cyclopentyldihydropyran-2,4-dione] |  | 10 to 50 µM | 
COc1ccc(CCC2(C3CCCC3)CC(=O)CC(=O)O2)c(OC)c1 (stereo not shown) [Example 38, 6-Cyclopentyl-6-[2-(2,4-dimethoxy-phenyl)-ethyl]-dihydro-pyran-2,4-dione] |  | 10 to 50 µM | 
COc1ccc(CCC2(C3CCCC3)CC(O)=C(Sc3nc(N)c4cn[nH]c4n3)C(=O)O2)cc1 (stereo not shown) [Example 120, 3-[(4-Amino-1H-pyrazolo[3,4-d]pyrimidin-6-yl)thio]-6-cyclopentyl-4-hydroxy-6-[2-(4-methoxyphenyl)ethyl]-5,6-dihydro-2H-pyran-2-one] |  | < 1 µM | 
COc1ccc(CCC2(C3CCCC3)CC(O)=C(Sc3nc4nc[nH]c4c(=O)[nH]3)C(=O)O2)cc1 (stereo not shown) [Example 118, 2-((6-Cyclopentyl-4-hydroxy-6-[2-(4-methoxyphenyl)ethyl]-2-oxo-5,6-dihydro-2H-pyran-3-yl}thio)-1,7-dihydro-6H-purin-6-one] |  | < 1 µM | 
Cc1cc(SC2=C(O)C[C@](CCc3cccc(O)c3)(C3CCCC3)OC2=O)c(C(C)(C)C)cc1CO [Example 153, (R)-3-(2-tert-butyl-4-hydroxymethyl-5-methyl-phenylsulfanyl)-6-cyclopentyl-4-hydroxy-6-[2-(3-hydroxy-phenyl)-ethyl]-5,6-dihydro-pyran-2-one] |  | < 1 µM | 
Cn1cccc(CCC2(C3CCCC3)CC(=O)CC(=O)O2)c1=O (stereo not shown) [Example 37, 6-Cyclopentyl-6-[2-(1-methyl-2-oxo-1,2-dihydro-pyridin-3-yl)-ethyl]-dihydro-pyran-2,4-dione] |  | > 50 µM | 
CCOc1c(F)cc(CCC2(C3CCCC3)CC(=O)CC(=O)O2)cc1F (stereo not shown) [Example 42] |  | 1 to 10 µM | 
6-[2-(3-Chloro-4-isopropoxy-phenyl)-ethyl]-6-cyclopentyl-4-hydroxy-3-(4-methoxy-phenylsulfanyl)-5,6-dihydro-pyran-2-one [Example 131] |  | < 1 µM | 
CCOc1cccc(CCC2(C3CCCC3)CC(=O)CC(=O)O2)c1 (stereo not shown) [Example 24, 6-Cyclopentyl-6-[2-(3-ethoxy-phenyl)-ethyl]-dihydro-pyran-2,4-dione] |  | 1 to 10 µM | 
COC(=O)c1ccc(CCC2(C3CCCC3)CC(=O)CC(=O)O2)cc1 (stereo not shown) [Example 65, 4-[2-(2-Cyclopentyl-4,6-dioxo-tetrahydro-pyran-2-yl)-ethyl]-benzoic acid methyl ester] |  | 1 to 10 µM | 
CCSc1ccc(CCC2(C3CCCC3)CC(=O)CC(=O)O2)cc1 (stereo not shown) [Example 75, 6-Cyclopentyl-6-[2-(4-ethylsulfanyl-phenyl)-ethyl]-dihydro-pyran-2,4-dione] |  | 1 to 10 µM | 
COc1ccc(CCC2(C3CCCC3)CC(O)=C(Sc3nc4nc(C)cc(C)n4n3)C(=O)O2)cc1 (stereo not shown) [Example 92, 6-[2-(4-methoxyphenyl)ethyl]-6-cyclopentyl-3-[(5,7-dimethyl[1,2,4]triazolo[1,5-a]pyrimidin-2-yl)thio]-4-hydroxy-5,6-dihydro-2H-pyran-2-one] |  | < 1 µM | 
Cc1cc(SC2=C(O)CC(CCc3cc(Cl)c(N)c(Cl)c3)(C(C)C)OC2=O)c(C(C)(C)C)cc1N (stereo not shown) [Example 138, 3-(4-Amino-2-tert-butyl-5-methyl-phenylsulfanyl)-6-[2-(4-amino-3,5-dichloro-phenyl)-ethyl]-4-hydroxy-6-isopropyl-5,6-dihydro-pyran-2-one] |  | 10 to 50 µM | 
O=C1CC(=O)OC(CCc2ccc(C(=O)N3CCOCC3)cc2)(C2CCCC2)C1 (stereo not shown) [Example 68, 6-Cyclopentyl-6-{2-[4-(morpholine-4-carbonyl)-phenyl]-ethyl}-dihydro-pyran-2,4-dione] |  | > 50 µM | 
COc1cc(OC)c(CCC2(C3CCCC3)CC(O)=C(Sc3nccs3)C(=O)O2)cc1Cl (stereo not shown) [Example 109, 6-[2-(5-Chloro-2,4-dimethoxyphenyl)ethyl]-6-cyclopentyl-4-hydroxy-3-(1,3-thiazol-2-ylthio)-5,6-dihydro-2H-pyran-2-one] |  | < 1 µM | 
CC(=O)c1ccc(CCC2(C3CCCC3)CC(=O)CC(=O)O2)cc1 (stereo not shown) [Example 63, 6-[2-(4-Acetyl-phenyl)-ethyl]-6-cyclopentyl-dihydro-pyran-2,4-dione] |  | 1 to 10 µM | 
O=C1C=C(O)CC(CCCc2ccccc2)(C2CCCC2)O1 (stereo not shown) [Example 21, 6-Cyclopentyl-4-hydroxy-6-(3-phenyl-propyl)-5,6-dihydro-pyran-2 one] |  | > 50 µM | 

Reference: patent US7115658B2 (priority 2002, dated 2006)
